Assay results taken from ChEMBL document CHEMBL1681705, “Optimisation of ITK inhibitors through successive iterative design cycles” (Bioorg Med Chem Lett, 2011).

Key:
[1] = Inhibition of MAPK2 at 0.1 uM; settings: values are per cent of control
[2] = target: Insulin receptor (Homo sapiens) (UniProt P06213); test: Inhibition of IR at 1 uM; values are per cent of control
[3] = target: Macrophage colony-stimulating factor 1 receptor (Homo sapiens) (UniProt P07333); test: Inhibition of Fms at 1 uM; values are per cent of control
[4] = target: T1, Activin receptor type-1B (Homo sapiens) (UniProt P36896); test: Inhibition of ALK4 at 1 uM; values are per cent of control
T1 sequence (whole entry): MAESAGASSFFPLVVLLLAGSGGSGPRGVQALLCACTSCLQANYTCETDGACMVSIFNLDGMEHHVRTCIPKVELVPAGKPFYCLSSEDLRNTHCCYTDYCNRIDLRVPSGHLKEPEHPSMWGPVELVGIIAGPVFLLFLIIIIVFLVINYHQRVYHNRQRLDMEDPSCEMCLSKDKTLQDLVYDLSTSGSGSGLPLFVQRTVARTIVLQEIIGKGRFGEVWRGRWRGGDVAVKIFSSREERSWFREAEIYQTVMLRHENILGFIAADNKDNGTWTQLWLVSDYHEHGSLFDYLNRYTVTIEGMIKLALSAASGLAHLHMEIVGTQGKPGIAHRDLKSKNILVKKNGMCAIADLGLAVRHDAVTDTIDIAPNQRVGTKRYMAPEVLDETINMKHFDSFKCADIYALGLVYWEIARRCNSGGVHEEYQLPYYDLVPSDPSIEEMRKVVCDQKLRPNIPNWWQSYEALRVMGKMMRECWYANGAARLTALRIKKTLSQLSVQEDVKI

[5] = target: Vascular endothelial growth factor receptor 2 (Homo sapiens) (UniProt P35968); test: Inhibition of KDR at 0.1 uM; values are per cent of control
[6] = target: T2, Serine/threonine-protein kinase Sgk1 (Homo sapiens) (UniProt O00141); test: Inhibition of SGK at 0.1 uM; values are per cent of control
T2 sequence (whole entry): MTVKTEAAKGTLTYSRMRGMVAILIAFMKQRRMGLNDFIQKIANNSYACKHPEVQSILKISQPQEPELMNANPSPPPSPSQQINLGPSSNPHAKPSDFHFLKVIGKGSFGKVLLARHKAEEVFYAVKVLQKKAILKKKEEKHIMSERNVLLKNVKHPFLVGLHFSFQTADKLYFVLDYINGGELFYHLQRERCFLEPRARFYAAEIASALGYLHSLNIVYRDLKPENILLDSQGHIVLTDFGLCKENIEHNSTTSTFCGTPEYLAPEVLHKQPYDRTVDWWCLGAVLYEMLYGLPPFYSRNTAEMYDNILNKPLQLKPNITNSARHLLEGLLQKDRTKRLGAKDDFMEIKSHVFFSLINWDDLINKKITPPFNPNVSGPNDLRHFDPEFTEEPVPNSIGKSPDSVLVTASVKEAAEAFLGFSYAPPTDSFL

[7] = target: Receptor-type tyrosine-protein kinase FLT3 (Homo sapiens) (UniProt P36888); test: Inhibition of Flt3 at 0.1 uM; values are per cent of control
[8] = target: Ribosomal protein S6 kinase alpha-4 (Homo sapiens) (UniProt O75676); test: Inhibition of MSK2 at 0.1 uM; values are per cent of control
[9] = target: Ephrin type-A receptor 7 (Homo sapiens) (UniProt Q15375); test: Inhibition of EphA7 at 0.1 uM; values are per cent of control
[10] = target: T3, cGMP-dependent protein kinase 1 (Homo sapiens) (UniProt Q13976); test: Inhibition of PKG1beta at 0.1 uM; values are per cent of control
T3 sequence (whole entry): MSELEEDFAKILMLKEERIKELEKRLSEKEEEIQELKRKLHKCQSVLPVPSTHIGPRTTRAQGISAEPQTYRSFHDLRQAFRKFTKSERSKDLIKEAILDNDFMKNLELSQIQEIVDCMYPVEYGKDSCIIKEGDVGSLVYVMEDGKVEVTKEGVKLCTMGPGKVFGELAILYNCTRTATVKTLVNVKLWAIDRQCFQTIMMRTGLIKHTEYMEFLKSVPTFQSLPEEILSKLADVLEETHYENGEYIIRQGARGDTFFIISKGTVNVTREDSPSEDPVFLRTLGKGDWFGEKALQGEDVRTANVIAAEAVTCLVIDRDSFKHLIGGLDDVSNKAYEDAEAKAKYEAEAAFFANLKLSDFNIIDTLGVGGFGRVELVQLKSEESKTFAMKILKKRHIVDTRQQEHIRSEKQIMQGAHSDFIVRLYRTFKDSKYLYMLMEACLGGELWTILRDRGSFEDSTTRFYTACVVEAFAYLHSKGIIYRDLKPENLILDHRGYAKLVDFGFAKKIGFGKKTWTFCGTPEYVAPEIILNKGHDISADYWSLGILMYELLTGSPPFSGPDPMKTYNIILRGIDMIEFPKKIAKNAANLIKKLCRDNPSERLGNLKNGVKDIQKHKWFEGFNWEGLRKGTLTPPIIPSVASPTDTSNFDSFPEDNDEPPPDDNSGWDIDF

Sequence of Ephrin type-A receptor 7 (Homo sapiens) (Q15375 28-998 limits assumed): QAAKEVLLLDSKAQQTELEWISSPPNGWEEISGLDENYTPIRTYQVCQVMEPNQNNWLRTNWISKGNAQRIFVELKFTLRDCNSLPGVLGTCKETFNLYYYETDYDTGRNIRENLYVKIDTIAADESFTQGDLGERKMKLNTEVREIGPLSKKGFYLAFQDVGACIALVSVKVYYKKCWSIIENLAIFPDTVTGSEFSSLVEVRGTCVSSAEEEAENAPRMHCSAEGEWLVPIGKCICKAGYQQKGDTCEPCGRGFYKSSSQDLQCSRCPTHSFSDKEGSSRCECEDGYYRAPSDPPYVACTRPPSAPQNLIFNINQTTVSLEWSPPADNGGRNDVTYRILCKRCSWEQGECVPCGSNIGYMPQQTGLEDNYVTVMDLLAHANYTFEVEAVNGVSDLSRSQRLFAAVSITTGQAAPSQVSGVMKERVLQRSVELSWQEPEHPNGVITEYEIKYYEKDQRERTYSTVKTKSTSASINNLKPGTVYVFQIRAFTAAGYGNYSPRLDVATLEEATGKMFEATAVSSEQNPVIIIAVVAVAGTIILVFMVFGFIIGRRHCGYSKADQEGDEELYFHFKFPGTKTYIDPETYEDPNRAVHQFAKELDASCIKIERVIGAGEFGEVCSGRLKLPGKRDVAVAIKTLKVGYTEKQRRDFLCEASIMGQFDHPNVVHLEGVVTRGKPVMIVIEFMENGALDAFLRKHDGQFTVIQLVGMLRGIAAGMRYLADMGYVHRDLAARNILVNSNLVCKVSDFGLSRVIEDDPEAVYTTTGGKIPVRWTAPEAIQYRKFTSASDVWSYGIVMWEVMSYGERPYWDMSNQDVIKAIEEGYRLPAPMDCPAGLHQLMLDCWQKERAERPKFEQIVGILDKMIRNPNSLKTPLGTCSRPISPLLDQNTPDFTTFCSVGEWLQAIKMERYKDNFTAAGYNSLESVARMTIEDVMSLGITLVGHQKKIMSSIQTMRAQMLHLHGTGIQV
Sequence of Vascular endothelial growth factor receptor 2 (Homo sapiens) (P35968 whole entry): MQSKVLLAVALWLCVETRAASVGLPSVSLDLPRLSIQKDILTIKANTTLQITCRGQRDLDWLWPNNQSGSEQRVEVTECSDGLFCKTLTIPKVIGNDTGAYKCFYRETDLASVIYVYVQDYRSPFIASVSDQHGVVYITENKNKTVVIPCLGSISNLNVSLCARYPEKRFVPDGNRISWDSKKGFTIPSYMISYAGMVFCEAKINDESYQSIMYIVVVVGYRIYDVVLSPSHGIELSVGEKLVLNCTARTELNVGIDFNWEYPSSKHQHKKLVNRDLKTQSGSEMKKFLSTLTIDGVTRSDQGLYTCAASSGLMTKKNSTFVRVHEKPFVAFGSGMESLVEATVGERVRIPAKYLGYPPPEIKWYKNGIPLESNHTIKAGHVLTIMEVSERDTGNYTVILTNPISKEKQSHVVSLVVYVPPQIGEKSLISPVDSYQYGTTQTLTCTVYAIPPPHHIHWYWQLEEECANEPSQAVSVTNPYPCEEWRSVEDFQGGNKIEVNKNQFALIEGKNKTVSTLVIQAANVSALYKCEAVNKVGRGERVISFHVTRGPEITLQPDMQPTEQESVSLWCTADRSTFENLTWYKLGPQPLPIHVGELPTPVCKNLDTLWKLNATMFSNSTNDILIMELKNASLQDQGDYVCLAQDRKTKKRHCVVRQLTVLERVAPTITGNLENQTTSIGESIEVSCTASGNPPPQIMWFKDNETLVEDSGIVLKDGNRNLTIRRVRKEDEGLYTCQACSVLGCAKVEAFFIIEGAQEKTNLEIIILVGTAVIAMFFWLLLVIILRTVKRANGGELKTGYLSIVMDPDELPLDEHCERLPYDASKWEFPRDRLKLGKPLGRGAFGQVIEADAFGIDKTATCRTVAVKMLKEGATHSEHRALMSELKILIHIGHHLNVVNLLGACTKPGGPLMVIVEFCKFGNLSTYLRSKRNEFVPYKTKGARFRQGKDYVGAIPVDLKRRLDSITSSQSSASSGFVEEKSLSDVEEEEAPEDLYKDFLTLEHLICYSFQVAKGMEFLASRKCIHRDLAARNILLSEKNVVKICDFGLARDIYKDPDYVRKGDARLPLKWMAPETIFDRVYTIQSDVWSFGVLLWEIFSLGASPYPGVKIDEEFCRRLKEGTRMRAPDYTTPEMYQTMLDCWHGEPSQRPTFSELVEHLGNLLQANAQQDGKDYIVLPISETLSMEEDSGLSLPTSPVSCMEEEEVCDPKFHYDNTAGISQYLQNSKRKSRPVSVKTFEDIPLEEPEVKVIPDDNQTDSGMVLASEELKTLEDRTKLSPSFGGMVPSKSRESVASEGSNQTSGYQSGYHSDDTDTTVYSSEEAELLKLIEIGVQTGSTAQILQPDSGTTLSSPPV
Sequence of Macrophage colony-stimulating factor 1 receptor (Homo sapiens) (P07333 whole entry): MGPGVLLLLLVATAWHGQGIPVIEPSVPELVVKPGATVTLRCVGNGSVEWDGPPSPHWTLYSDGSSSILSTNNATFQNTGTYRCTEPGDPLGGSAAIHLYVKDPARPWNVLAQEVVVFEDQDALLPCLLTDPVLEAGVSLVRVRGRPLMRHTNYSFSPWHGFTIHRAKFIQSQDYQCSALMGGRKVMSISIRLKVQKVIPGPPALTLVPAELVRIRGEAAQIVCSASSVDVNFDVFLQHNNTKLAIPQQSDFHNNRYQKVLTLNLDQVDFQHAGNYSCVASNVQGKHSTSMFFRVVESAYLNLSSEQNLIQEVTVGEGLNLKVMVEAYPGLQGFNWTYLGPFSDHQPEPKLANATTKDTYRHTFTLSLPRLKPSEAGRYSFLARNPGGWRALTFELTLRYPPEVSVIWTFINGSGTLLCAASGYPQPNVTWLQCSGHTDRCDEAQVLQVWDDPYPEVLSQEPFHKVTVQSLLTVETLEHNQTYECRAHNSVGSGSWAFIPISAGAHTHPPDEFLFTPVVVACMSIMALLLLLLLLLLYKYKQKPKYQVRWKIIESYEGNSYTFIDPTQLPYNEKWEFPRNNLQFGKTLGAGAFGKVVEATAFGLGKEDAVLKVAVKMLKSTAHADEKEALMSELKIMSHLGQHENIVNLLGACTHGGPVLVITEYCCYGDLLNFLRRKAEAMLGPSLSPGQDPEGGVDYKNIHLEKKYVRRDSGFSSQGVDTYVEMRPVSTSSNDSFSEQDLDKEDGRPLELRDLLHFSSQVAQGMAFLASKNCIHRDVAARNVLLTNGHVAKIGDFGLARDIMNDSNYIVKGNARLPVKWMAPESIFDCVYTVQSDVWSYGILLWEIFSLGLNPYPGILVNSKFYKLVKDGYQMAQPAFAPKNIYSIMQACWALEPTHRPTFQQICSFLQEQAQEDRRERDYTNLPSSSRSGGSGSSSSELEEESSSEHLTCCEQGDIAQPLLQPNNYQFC
Sequence of Receptor-type tyrosine-protein kinase FLT3 (Homo sapiens) (P36888 whole entry): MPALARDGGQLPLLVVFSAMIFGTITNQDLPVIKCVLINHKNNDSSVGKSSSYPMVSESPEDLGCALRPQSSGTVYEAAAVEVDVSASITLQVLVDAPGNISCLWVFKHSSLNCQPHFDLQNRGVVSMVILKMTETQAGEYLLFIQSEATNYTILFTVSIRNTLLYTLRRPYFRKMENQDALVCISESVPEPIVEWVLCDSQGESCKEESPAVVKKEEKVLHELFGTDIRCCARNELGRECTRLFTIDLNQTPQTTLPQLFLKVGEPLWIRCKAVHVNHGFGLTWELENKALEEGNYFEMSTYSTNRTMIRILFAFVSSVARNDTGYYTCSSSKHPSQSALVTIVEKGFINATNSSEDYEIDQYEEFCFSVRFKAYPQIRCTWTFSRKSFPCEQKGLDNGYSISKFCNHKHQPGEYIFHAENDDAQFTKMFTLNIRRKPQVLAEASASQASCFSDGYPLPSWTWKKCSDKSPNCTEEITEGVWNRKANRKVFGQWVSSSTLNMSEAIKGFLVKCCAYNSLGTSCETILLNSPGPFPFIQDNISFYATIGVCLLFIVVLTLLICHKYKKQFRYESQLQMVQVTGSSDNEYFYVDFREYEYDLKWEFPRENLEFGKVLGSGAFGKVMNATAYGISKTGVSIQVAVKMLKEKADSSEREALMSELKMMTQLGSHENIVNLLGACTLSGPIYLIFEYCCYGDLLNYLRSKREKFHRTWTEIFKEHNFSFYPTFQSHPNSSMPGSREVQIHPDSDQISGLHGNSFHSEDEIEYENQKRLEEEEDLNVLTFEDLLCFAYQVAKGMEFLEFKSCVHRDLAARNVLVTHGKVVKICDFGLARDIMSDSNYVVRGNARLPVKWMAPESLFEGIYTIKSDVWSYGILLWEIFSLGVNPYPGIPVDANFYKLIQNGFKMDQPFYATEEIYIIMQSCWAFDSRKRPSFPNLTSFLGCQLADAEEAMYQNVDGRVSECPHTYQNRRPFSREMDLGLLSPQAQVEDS
Sequence of Ribosomal protein S6 kinase alpha-4 (Homo sapiens) (O75676 whole entry, looked up): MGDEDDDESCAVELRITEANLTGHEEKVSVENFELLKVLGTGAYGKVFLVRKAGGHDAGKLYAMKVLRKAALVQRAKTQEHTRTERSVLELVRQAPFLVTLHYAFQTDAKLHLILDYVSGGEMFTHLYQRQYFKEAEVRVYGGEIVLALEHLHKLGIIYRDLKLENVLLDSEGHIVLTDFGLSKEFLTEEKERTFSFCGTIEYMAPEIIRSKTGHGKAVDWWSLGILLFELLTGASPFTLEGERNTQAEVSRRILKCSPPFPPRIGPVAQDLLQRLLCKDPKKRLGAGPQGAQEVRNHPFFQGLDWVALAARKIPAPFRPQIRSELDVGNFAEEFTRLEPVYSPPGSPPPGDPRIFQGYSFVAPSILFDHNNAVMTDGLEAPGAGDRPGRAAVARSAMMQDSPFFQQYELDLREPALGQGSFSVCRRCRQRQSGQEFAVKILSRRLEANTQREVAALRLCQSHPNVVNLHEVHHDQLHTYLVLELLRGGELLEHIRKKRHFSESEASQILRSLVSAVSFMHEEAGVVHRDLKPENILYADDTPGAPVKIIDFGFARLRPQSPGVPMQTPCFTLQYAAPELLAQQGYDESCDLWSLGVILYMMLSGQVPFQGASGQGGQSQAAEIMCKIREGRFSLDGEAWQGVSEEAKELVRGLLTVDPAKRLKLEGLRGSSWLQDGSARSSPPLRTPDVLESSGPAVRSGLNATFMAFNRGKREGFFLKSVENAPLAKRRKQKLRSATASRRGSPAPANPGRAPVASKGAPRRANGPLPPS

SMILES: Cc1ccc2cc(-c3n[nH]c4ccc(NC5CCNC5)cc34)[nH]c2c1 (stereo not given)
- residual activity [1]: 108%
- residual activity [2]: 66%
- residual activity [3]: 10%
- residual activity [4]: 114%
- residual activity [5]: 28%
- residual activity [6]: 63%
- residual activity [7]: 24%
- residual activity [8]: 39%
- residual activity [9]: 75%
- residual activity [10]: 95%

SMILES: Cc1ccc2cc(-c3n[nH]c4ccc(NC5CCN(Cc6ccccc6)CC5)cc34)[nH]c2c1
- residual activity [1]: 100%
- residual activity [2]: 60%
- residual activity [3]: 20%
- residual activity [4]: 103%
- residual activity [5]: 45%
- residual activity [6]: 121%
- residual activity [7]: 5%
- residual activity [8]: 106%
- residual activity [9]: 75%
- residual activity [10]: 83%
